In ChEMBL document CHEMBL1152277, “Lead optimization of 4-acetylamino-2-(3,5-dimethylpyrazol-1-yl)-6-pyridylpyrimidines as A2A adenosine receptor antagonists for the treatment of Parkinson's disease” (J Med Chem, 2008):
Converted amounts (≈) assume the structure as drawn.

Columns and labels:
[1] = Aqueous solubility in phosphate-buffered saline at pH 7.4; format: physicochemical
Rattus norvegicus [2] = species: Rattus norvegicus; assay: Inhibition of haloperidol-induced catalepsy in rat assessed as minimal effective dose; format: functional; details: read-out: MED
Adenosine receptor A2a [3] = target: Adenosine receptor A2a (Rattus norvegicus, UniProt P30543); assay: Displacement of [3H][…] from rat adenosine A2A receptor expressed in CHO cells; format: cell-based
Adenosine receptor A2a [4] = target: T1, Adenosine receptor A2a (Homo sapiens, UniProt P29274); assay: Antagonist activity at human adenosine A2A receptor expressed in CHO cells assessed as inhibition of CGS-21680-induced cAMP production; format: functional, cell-based
[5] = Metabolic stability in human liver microsomes assessed as intrinsic clearance by LC-MS/MS analysis; format: ADME, Microsome
Cytochrome P450 3A4 = Cytochrome P450 3A4 (Homo sapiens, UniProt P08684)
Description: Inhibition of CYP3A4 in human liver microsomes by LC-MS/MS analysis

[6] = Drug concentration in rat brain at 10 mg/kg, po after 2 hrs; format: ADME, organism-based; parameters: dose 10 mg/kg, route oral; details: read-out: Drug uptake
[7] = Plasma concentration in rat at 10 mg/kg, po after 2 hrs; format: ADME, organism-based; parameters: dose 10 mg/kg, route oral
Homo sapiens = species: Homo sapiens; assay: Selectivity ratio of Ki for human adenosine A1 receptor to Ki for human adenosine A2A receptor
[8] = Drug concentration in rat brain at 30 mg/kg, po after 2 hrs; format: ADME, organism-based; parameters: dose 30 mg/kg, route oral; details: read-out: Drug uptake
[9] = Plasma concentration in rat at 30 mg/kg, po after 2 hrs; format: ADME, organism-based; parameters: dose 30 mg/kg, route oral
Adenosine receptor A2a [10] = target: T1, Adenosine receptor A2a; assay: Displacement of [3H][…] from human adenosine A2A receptor expressed in HEK293 cells; format: cell-based
Adenosine receptor A1 = target: T2, Adenosine receptor A1 (Homo sapiens, UniProt P30542); assay: Displacement of [3H]DPCPX from human adenosine A1 receptor expressed in HEK293 cells; format: cell-based
T2 sequence (P30542 whole entry): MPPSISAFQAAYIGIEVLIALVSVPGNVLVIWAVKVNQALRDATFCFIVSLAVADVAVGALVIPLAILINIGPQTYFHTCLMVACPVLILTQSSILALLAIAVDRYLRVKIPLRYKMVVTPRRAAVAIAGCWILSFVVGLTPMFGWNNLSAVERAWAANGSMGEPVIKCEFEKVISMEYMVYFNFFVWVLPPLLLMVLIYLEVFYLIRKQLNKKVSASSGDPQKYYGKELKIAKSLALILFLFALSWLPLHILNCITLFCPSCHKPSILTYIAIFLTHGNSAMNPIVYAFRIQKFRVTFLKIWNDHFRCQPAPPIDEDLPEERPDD

[11] = Metabolic stability in rat liver microsomes assessed as intrinsic clearance by LC-MS/MS analysis; format: ADME, Microsome
Rattus norvegicus [12] = assay: Inhibition of haloperidol-induced catalepsy in rat at 30 mg/kg, po after 2 hrs; format: functional

T1 sequence (P29274 whole entry): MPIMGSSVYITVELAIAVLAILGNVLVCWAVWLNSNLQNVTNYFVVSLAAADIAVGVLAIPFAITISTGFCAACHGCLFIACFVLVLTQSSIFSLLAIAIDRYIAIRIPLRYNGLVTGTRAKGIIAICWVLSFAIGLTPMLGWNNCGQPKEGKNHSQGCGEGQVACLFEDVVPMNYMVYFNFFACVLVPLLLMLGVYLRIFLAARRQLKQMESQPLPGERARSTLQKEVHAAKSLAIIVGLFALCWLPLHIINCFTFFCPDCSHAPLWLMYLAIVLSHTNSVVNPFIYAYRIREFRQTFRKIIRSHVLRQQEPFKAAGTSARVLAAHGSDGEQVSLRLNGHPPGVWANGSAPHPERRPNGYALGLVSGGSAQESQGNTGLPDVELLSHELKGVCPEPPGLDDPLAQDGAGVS
Chain of Cytochrome P450 3A4 (P08684 whole entry): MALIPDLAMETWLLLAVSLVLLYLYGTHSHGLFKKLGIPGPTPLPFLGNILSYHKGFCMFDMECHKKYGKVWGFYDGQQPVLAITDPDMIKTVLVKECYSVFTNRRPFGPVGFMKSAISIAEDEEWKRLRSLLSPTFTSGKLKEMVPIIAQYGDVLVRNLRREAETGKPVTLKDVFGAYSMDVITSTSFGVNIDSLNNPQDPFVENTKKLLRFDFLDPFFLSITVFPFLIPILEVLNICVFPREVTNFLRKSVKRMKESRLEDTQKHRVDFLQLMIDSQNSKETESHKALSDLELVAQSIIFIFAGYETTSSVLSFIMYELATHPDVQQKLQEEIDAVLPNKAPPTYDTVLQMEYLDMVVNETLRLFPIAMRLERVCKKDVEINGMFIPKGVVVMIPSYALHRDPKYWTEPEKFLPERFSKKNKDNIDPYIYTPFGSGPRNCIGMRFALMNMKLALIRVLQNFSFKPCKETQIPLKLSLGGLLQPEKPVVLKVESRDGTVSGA
Chain of Adenosine receptor A2a (Rattus norvegicus, UniProt P30543) (P30543 whole entry): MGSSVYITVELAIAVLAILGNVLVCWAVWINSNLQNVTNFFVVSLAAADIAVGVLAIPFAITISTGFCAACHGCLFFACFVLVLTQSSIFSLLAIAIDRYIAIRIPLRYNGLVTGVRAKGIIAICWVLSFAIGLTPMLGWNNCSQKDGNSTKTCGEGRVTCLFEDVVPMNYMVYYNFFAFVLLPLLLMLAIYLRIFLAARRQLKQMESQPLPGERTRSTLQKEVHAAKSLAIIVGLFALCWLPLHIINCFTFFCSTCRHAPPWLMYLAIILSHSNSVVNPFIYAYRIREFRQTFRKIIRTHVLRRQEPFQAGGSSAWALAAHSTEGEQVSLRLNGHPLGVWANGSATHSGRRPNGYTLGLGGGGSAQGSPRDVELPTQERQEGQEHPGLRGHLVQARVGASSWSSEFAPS

- solubility [1]: 200 µg/mL (≈ 491 µM)
- Ki (Adenosine receptor A2a [3]): 0.01 µM
- IC50 (Adenosine receptor A2a [4]): 0.022 µM
- CLint scaled [5]: 43 mL/min/kg
- IC50 (Cytochrome P450 3A4): > 20 µM
- concentration at 2 h [6]: 9 ng/g
- concentration at 2 h [7]: 16 ng/mL
- Ratio Ki (Homo sapiens): 247
- concentration at 2 h [8]: 91 ng/g
- concentration at 2 h [9]: 180 ng/mL
- Ki (Adenosine receptor A2a [10]): 0.0019 µM
- Ki (Adenosine receptor A1): 0.47 µM
- CLint scaled [11]: 230 mL/min/kg
Compound: CC(=O)Nc1cc(-c2cccc(N3CCC(O)CC3)n2)nc(-n2nc(C)cc2C)n1
- minimal effective dose (Rattus norvegicus [2]): 30 mg/kg
- inhibition in vivo at 30 mg/kg (Rattus norvegicus [12]): 90%
